Laboratory results from article PMC4444405 (Chemical biology & drug design, 2014).
Read-outs that look alike come from different tables or passages of the source. Square brackets hold non-standard residues; d marks the D form. Ends that are not written are not given here. pY = N[C@@H](Cc1ccc(OP(=O)(O)O)cc1)C(=O)O

Experiments:
Src-YEEI [1] = molecular target: T1, Src-YEEI (Homo sapiens, UniProt P12931); format: biochemical
Src-YEEI [2] = molecular target: T1, Src-YEEI; format: biochemical; remark: listed apart in the source
[3] = molecular target: T2, Src-YEEI:pFAK peptide complex (Homo sapiens, UniProt P12931); assay: Z'Lyte end-point in vitro kinase assay, Src-YEEI in presence of pFAK peptide; format: biochemical; conditions: compound 10 μM; Z'Lyte library screen
[4] = system: Src-YEEI:pFAK peptide complex; assay: as above; format: biochemical, human; conditions: ratio of the IC50 values for Src-YEEI:pFAK peptide complex and Src-YEEI alone, Z'Lyte
Src-YEEI [5] = molecular target: T1, Src-YEEI; format: biochemical; remark: listed apart in the source
[6] = molecular target: T2, Src-YEEI:pFAK peptide complex; format: biochemical; conditions: read-out: IC50, Src-YEEI + pFAK, ADP Quest
[7] = system: Src-YEEI:pFAK peptide complex; format: biochemical, human; conditions: ratio of the IC50 values for Src-YEEI:pFAK peptide complex and Src-YEEI alone, ADP Quest
Src-YEEI [8] = molecular target: T1, Src-YEEI; format: biochemical; conditions: read-out: IC50, Src-YEEI alone, ADP Quest

Row | Compound | percent of maximal activation of Src-YEEI (Src-YEEI [1]) | rate of ADP production by Src-YEEI in presence of peptide (Src-YEEI [2]) | percent inhibition of Src-YEEI:pFAK peptide complex in the screening assay [3] | Selectivity ratio, Z'Lyte [4] | percent inhibition of Src-YEEI alone in the screening assay (Src-YEEI [5]; 10 µM) | IC50 (Src-YEEI [5]; read-out: IC50, Src-YEEI alone, Z'Lyte) | IC50 [6] | Selectivity ratio, ADP Quest [7] | IC50 (Src-YEEI [8])
1 | AAAARALPSIPKLAN NEKQGVRSHTVSVSETDDY^PAEIID (AAAARALPSIPKLANNEKQGVRSHTVSVSETDD[pY]AEIID) [pFAK] | 40% | 1.0 pmol ADP produced/min |  |  |  |  |  |  | 
2 | COc1ccc(N(C(=O)Oc2c(C)cccc2C)c2ccnc(Nc3ccc(N4CCN(C)CC4)cc3)n2)c(OC)c1 [WH-4-023] |  |  | more than 70% | 0.94 | more than 70% | 1280 nM | 25 nM | 0.76 | 19 nM
